Test results as given in US20100210536A1, “USE OF LEPTIN (22-56 ) AS A THERAPEUTIC AGENT” (priority 2007, published 2010).
Where no end group is shown, it is not given here.

Experiments:
MRC-5 cells = assay: Cytotoxicity in MRC-5 cells (CellTiter 96 cell viability); settings: 6 days incubation
Pseudomonas aeruginosa = assay type: cell-based; settings: 5 micrograms per ml
Streptococcus pneumoniae = assay type: cell-based; settings: 5 micrograms per ml
MRSA = settings: 5 micrograms per ml
in vitro [1] = settings: human
in vitro [2] = settings: human, HepG2-2.2.15 cells
in vitro [3] = settings: human, MRC-5 cells

Row | Compound | % Cell viability (MRC-5 cells) | % inhibition (Pseudomonas aeruginosa) | % inhibition (Streptococcus pneumoniae) | % inhibition (MRSA) | viability at 10 micrograms per ml (in vitro [1]) | viability at 144 h, 10 micrograms per ml (in vitro [2]) | viability at 144 h (in vitro [3])
1 | Nc1nc(O)c2ncn(COC(CO)CO)c2n1 [Ganciclovir] | 100% |  |  |  |  |  | 
2 | VPIQKVQDDTKTLIKTIVTRINDISHTQSVSSKQK-OH [Leptin (22-56)] |  | 0.0% | 0.0% | 0.0% | 93.5% | 100% | 100%
